Measured values taken from paper PMC8800111 (The Journal of Biological Chemistry, 2021).

Experiments:
Format in all cases: cell-based
[1] = molecular target: proteins of U3A human fibrosarcoma cells (4462 proteins detected) (Homo sapiens, UniProt Q8TBZ3); conditions: protein WDR20, U3A cells
[2] = molecular target: proteins of U3A human fibrosarcoma cells (4462 proteins detected) (Homo sapiens, UniProt Q9NVR2); conditions: protein INTS10; U3A cells
[3] = molecular target: proteins of U3A human fibrosarcoma cells (4462 proteins detected) (Homo sapiens, UniProt Q9Y6E2); conditions: protein BZW2; U3A cells
[4] = molecular target: proteins of U3A human fibrosarcoma cells (4462 proteins detected) (Homo sapiens, UniProt Q86TU7); conditions: protein SETD3; U3A cells
[5] = molecular target: proteins of U3A human fibrosarcoma cells (4462 proteins detected) (Homo sapiens, UniProt P29992); conditions: protein GNA11; U3A cells
[6] = molecular target: proteins of U3A human fibrosarcoma cells (4462 proteins detected) (Homo sapiens, UniProt P22413); conditions: protein ENPP1; U3A cells
[7] = molecular target: proteins of U3A human fibrosarcoma cells (4462 proteins detected) (Homo sapiens, UniProt P49368); conditions: protein CCT3; U3A cells
[8] = molecular target: proteins of U3A human fibrosarcoma cells (4462 proteins detected) (Homo sapiens, UniProt Q9H1D9); conditions: protein POLR3F; U3A cells
[9] = molecular target: proteins of U3A human fibrosarcoma cells (4462 proteins detected) (Homo sapiens, UniProt Q9H2U1); conditions: protein DHX36, U3A cells
[10] = molecular target: proteins of U3A human fibrosarcoma cells (4462 proteins detected) (Homo sapiens, UniProt Q9NRW3); conditions: protein APOBEC3C; U3A cells
[11] = molecular target: proteins of U3A human fibrosarcoma cells (4462 proteins detected) (Homo sapiens, UniProt P82663); conditions: protein MRPS25; U3A cells
[12] = molecular target: proteins of U3A human fibrosarcoma cells (4462 proteins detected) (Homo sapiens, UniProt Q9Y6A4); conditions: protein CFAP20; soluble abundance after heat, U3A cells
[13] = molecular target: proteins of U3A human fibrosarcoma cells (4462 proteins detected) (Homo sapiens, UniProt P14866); conditions: protein HNRNPL; soluble abundance after heat, U3A cells
[14] = molecular target: proteins of U3A human fibrosarcoma cells (4462 proteins detected) (Homo sapiens, UniProt Q9NXV2); conditions: protein KCTD5, U3A cells
[15] = molecular target: proteins of U3A human fibrosarcoma cells (4462 proteins detected) (Homo sapiens, UniProt O75347); conditions: protein TBCA, U3A cells
[16] = molecular target: proteins of U3A human fibrosarcoma cells (4462 proteins detected) (Homo sapiens, UniProt Q9Y3T9); conditions: protein NOC2L; soluble abundance after heat, U3A cells
[17] = molecular target: proteins of U3A human fibrosarcoma cells (4462 proteins detected) (Homo sapiens, UniProt Q9H4A6); conditions: protein GOLPH3; U3A cells
[18] = molecular target: proteins of U3A human fibrosarcoma cells (4462 proteins detected) (Homo sapiens, UniProt P23921); conditions: protein RRM1; U3A, 10 μM, 2 h
[19] = molecular target: proteins of U3A human fibrosarcoma cells (4462 proteins detected) (Homo sapiens, UniProt Q9GZQ3); conditions: protein COMMD5; U3A cells
[20] = molecular target: proteins of U3A human fibrosarcoma cells (4462 proteins detected) (Homo sapiens, UniProt P37837); conditions: protein TALDO1, U3A cells
[21] = molecular target: proteins of U3A human fibrosarcoma cells (4462 proteins detected) (Homo sapiens, UniProt Q8TBF4); conditions: protein ZCRB1; soluble abundance after heat, U3A cells
[22] = molecular target: proteins of U3A human fibrosarcoma cells (4462 proteins detected) (Homo sapiens, UniProt Q8IZL8); conditions: protein PELP1; U3A cells
[23] = molecular target: proteins of U3A human fibrosarcoma cells (4462 proteins detected) (Homo sapiens, UniProt O14737); conditions: protein PDCD5, U3A cells
[24] = molecular target: proteins of U3A human fibrosarcoma cells (4462 proteins detected) (Homo sapiens, UniProt O75674); conditions: protein TOM1L1; soluble abundance after heat, U3A cells
[25] = molecular target: proteins of U3A human fibrosarcoma cells (4462 proteins detected) (Homo sapiens, UniProt Q9UMX5); conditions: protein NENF, U3A cells
[26] = molecular target: proteins of U3A human fibrosarcoma cells (4462 proteins detected) (Homo sapiens, UniProt P09874); conditions: protein PARP1; U3A cells
[27] = molecular target: proteins of U3A human fibrosarcoma cells (4462 proteins detected) (Homo sapiens, UniProt P54886); conditions: protein ALDH18A1; U3A cells
[28] = molecular target: proteins of U3A human fibrosarcoma cells (4462 proteins detected) (Homo sapiens, UniProt Q96FZ2); conditions: protein HMCES, U3A cells
[29] = molecular target: proteins of U3A human fibrosarcoma cells (4462 proteins detected) (Homo sapiens, UniProt O95372); conditions: protein LYPLA2; soluble abundance after heat, U3A cells
[30] = molecular target: proteins of U3A human fibrosarcoma cells (4462 proteins detected) (Homo sapiens, UniProt O95297); conditions: protein MPZL1; U3A, 10 μM, 2 h

proteins of U3A human fibrosarcoma cells (4462 proteins detected) (Homo sapiens, UniProt Q8IZL8), sequence (Q8IZL8 whole entry): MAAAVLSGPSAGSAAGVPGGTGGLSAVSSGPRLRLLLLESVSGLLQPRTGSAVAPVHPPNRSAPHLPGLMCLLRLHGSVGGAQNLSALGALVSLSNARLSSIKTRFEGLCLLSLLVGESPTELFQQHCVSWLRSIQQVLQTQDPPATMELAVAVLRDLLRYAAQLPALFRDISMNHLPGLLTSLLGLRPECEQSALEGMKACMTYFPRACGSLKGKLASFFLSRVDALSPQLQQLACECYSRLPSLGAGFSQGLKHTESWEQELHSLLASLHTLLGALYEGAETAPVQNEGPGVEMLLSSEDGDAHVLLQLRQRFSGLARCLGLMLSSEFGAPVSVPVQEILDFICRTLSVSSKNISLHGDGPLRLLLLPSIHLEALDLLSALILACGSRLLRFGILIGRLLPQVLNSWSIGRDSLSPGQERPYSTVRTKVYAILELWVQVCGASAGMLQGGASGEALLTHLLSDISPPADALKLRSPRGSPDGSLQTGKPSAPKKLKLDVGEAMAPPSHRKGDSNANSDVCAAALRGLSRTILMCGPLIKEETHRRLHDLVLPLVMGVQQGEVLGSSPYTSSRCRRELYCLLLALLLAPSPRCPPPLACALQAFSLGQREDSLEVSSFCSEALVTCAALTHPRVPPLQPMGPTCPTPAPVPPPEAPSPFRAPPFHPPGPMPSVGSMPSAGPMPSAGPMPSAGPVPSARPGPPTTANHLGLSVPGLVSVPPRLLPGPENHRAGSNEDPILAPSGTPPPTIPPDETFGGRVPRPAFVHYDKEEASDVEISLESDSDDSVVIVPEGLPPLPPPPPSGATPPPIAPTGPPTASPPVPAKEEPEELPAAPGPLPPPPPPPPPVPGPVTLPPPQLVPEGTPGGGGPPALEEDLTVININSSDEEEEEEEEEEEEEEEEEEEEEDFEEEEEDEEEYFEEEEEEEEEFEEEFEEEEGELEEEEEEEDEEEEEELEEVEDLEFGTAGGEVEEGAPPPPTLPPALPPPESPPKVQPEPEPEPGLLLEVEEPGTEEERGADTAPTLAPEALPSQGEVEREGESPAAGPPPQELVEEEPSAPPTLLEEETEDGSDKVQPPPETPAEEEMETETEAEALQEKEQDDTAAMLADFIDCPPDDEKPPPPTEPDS
proteins of U3A human fibrosarcoma cells (4462 proteins detected) (Homo sapiens, UniProt O95372), sequence (O95372 whole entry): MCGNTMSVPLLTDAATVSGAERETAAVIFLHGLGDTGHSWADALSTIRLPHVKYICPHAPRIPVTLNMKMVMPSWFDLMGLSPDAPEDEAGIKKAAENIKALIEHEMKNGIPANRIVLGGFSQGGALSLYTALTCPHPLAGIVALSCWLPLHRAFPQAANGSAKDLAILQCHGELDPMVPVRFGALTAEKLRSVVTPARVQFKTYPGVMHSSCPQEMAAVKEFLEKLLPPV
proteins of U3A human fibrosarcoma cells (4462 proteins detected) (Homo sapiens, UniProt Q9NVR2), sequence (Q9NVR2 whole entry): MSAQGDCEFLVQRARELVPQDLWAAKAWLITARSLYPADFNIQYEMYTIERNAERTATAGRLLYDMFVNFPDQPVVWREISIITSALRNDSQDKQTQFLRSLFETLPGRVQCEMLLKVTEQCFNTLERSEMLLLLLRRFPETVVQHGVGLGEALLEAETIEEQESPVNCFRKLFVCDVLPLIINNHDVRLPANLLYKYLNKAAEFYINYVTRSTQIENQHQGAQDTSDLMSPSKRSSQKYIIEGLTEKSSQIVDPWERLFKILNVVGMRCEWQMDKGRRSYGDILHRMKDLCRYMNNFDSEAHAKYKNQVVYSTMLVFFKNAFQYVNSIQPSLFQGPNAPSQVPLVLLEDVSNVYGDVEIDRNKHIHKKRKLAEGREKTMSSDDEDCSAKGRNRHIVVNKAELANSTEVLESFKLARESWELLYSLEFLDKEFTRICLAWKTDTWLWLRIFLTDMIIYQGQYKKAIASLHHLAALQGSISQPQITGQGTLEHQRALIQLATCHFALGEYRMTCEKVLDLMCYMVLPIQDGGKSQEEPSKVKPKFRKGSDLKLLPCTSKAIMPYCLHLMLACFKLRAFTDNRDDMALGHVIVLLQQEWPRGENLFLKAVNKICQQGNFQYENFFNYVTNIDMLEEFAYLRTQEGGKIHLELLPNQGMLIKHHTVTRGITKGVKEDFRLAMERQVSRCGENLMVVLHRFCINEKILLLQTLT
proteins of U3A human fibrosarcoma cells (4462 proteins detected) (Homo sapiens, UniProt P29992), sequence (P29992 whole entry): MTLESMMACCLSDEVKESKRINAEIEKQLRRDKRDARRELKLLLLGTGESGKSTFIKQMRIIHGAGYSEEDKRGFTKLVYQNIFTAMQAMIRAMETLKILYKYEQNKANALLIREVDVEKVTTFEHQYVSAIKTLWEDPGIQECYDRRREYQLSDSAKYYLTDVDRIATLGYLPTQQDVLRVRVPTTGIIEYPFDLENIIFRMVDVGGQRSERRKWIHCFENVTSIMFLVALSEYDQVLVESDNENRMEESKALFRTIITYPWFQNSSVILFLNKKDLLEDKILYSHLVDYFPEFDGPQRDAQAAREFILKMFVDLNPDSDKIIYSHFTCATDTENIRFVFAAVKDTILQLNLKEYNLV
proteins of U3A human fibrosarcoma cells (4462 proteins detected) (Homo sapiens, UniProt Q9NXV2), sequence (Q9NXV2 whole entry): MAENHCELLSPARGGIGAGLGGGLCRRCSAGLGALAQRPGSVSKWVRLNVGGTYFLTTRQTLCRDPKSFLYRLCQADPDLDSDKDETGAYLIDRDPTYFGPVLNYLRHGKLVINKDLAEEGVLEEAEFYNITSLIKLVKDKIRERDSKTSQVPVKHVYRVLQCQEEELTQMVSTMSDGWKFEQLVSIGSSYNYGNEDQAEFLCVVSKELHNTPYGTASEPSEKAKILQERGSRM
proteins of U3A human fibrosarcoma cells (4462 proteins detected) (Homo sapiens, UniProt P22413), sequence (P22413 whole entry): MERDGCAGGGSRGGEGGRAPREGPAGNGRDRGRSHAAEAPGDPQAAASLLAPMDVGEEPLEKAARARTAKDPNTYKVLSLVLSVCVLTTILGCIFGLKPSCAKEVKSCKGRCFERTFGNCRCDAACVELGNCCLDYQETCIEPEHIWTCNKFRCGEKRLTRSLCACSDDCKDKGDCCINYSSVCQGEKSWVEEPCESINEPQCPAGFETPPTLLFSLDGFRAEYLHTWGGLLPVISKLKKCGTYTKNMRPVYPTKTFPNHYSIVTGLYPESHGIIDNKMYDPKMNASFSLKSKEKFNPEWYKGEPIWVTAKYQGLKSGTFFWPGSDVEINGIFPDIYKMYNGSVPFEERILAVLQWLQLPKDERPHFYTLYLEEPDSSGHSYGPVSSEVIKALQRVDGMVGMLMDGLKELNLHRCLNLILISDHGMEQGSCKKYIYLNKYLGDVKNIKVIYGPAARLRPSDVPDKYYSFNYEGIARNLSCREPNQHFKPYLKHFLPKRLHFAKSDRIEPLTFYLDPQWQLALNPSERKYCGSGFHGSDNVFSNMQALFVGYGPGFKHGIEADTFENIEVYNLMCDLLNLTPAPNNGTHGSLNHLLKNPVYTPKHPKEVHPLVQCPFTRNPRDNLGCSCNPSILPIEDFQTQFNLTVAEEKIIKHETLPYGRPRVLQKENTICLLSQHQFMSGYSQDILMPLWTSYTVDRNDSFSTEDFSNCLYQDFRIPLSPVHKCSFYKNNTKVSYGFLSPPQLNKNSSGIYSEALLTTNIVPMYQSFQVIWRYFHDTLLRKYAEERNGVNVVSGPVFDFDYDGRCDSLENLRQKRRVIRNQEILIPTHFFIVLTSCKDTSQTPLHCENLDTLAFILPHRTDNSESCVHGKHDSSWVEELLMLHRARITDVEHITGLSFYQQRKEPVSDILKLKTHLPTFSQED
proteins of U3A human fibrosarcoma cells (4462 proteins detected) (Homo sapiens, UniProt Q9Y6E2), sequence (Q9Y6E2 whole entry): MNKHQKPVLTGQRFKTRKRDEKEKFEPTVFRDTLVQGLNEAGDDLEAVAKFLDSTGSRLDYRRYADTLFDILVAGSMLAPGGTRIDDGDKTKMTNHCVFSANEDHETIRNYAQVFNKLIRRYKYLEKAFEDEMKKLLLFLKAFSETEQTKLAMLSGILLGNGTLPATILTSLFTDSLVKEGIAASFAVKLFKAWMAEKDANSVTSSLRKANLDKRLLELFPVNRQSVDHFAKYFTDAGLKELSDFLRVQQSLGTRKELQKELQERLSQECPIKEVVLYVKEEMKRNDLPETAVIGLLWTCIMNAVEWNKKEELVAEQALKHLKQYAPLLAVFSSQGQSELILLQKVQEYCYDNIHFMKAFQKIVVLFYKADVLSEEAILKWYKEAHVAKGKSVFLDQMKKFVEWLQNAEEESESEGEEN
proteins of U3A human fibrosarcoma cells (4462 proteins detected) (Homo sapiens, UniProt P23921), sequence (P23921 whole entry): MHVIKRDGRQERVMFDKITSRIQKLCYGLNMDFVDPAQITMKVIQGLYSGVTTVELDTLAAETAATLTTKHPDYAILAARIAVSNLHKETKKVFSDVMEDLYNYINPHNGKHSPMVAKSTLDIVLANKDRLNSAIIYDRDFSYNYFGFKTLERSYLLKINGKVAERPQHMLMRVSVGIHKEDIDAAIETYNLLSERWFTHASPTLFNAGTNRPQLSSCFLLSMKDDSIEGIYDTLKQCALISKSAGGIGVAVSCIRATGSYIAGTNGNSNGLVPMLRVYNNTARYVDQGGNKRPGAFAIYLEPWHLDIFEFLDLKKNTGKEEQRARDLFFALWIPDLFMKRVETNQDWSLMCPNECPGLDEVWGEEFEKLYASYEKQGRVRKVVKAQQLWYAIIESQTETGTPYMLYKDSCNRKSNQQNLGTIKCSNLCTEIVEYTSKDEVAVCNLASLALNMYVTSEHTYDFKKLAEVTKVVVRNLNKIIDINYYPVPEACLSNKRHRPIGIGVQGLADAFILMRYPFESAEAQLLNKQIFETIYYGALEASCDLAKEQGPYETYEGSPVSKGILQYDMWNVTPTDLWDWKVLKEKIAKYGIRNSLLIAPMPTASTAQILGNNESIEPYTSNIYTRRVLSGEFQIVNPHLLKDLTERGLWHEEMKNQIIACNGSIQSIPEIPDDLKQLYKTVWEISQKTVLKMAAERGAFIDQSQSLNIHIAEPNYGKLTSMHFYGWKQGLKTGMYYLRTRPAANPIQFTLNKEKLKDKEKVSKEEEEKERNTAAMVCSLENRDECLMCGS
proteins of U3A human fibrosarcoma cells (4462 proteins detected) (Homo sapiens, UniProt Q9GZQ3), sequence (Q9GZQ3 whole entry): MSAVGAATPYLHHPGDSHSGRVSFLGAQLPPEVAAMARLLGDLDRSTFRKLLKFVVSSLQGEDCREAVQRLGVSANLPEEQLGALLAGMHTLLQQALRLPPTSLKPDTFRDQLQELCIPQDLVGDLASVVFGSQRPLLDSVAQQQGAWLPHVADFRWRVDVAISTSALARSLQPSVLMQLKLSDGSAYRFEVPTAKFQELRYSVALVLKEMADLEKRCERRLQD

In the case of CCc1nc(N)nc(N)c1-c1ccc(Cl)cc1 [pyrimethamine], the “Log2 (PYR/DMSO)” value [1] is reported as -0.04, the “Log2 (PYR/DMSO)” value [2] is reported as 0.18 and the “Log2 (PYR/DMSO)” value [3] is reported as 0.19. For the same compound, the “Log2 (PYR/DMSO)” value [4] was 0.20, the “Log2 (PYR/DMSO)” value [5] was 0.16 and the “Log2 (PYR/DMSO)” value [6] was 0.22. For the same compound, the “Log2 (PYR/DMSO)” value [7] was 0.17, the “Log2 (PYR/DMSO)” value [8] was 0.17 and the “Log2 (PYR/DMSO)” value [9] was -0.03. For the same compound, the “Log2 (PYR/DMSO)” value [10] was 0.22, the “Log2 (PYR/DMSO)” value [11] was 0.17 and the “Log2 (PYR/DMSO)” value [12] was 0.14. For the same compound, the “Log2 (PYR/DMSO)” value [13] was 0.15, the “Log2 (PYR/DMSO)” value [14] was -0.04 and the “Log2 (PYR/DMSO)” value [15] was -0.04. For the same compound, the “Log2 (PYR/DMSO)” value [16] was 0.14, the “Log2 (PYR/DMSO)” value [17] was 0.23 and the “Log2 (PYR/DMSO), RRM1” value [18] was 0.24. For the same compound, the “Log2 (PYR/DMSO)” value [19] was 0.21, the “Log2 (PYR/DMSO)” value [20] was -0.04 and the “Log2 (PYR/DMSO)” value [21] was 0.14. For the same compound, the “Log2 (PYR/DMSO)” value [22] was 0.16, the “Log2 (PYR/DMSO)” value [23] was -0.04 and the “Log2 (PYR/DMSO)” value [24] was 0.15. The “Log2 (PYR/DMSO)” value [25] was -0.04, the “Log2 (PYR/DMSO)” value [26] was 0.19 and the “Log2 (PYR/DMSO)” value [27] was 0.17. For the same compound, the “Log2 (PYR/DMSO)” value [28] was -0.04, the “Log2 (PYR/DMSO)” value [29] was 0.15 and the “Log2 (PYR/DMSO), MPZL1” value [30] was 0.25.
